In US7067532B2, “Substituted quinolines as antitumor agents” (AstraZeneca, priority 2000, dated 2006):

Test system: HT29 human colon tumour cells
Assay: Cell proliferation assays
Assay type: cell-based
Details: HT-29, 72 hours
Protocol: Cell Proliferation Assays Cells were seeded into multi-well plates at 20000–40000 cells/ml in growth medium containing 5% FCS and incubated overnight at 37° C. The compounds were prepared in fresh medium at an appropriate concentration and added to the wells containing the cells. These were then incubated for a further 72 hours. Cells were then either removed from the wells by incubating with trypsin/EDTA and counted using a Coulter counter, or treated with XTT/PMS in PBSA and optical densities read at 450 nm.

## CNC(=O)COc1ccccc1Oc1ccc(Nc2c(C#N)cnc3cc(NCCCN4CCOCC4)c(OC)cc23)cc1 [Compound 11]
  IC50: 1300 nM
